Holding throughout (format): cell-based, human
One assay concerns SF268. In words: NCI sulforhodamine B growth inhibition, CNS cancer cells. To be noted: 48 h. The protocol:
(§1) Inhibition of human cancer cell growth was assessed using the National Cancer Institute's standard sulforhodamine B assay as previously described.^19In summary, cells in a 5% fetal bovine serum/RPMI1640 medium were inoculated in 96-well plates and incubated for 24 hrs. Next, serial dilutions of the compounds were added. After 48 h, the plates were fixed with trichloroacetic acid, stained with sulforhodamine B, and read with an automated microplate reader. A growth inhibition of 50% (GI50 or the drug concentration causing a 50% reduction in the net protein increase) was calcd from optical density data with Immunosoft software. Normal cells were treated in identical conditions. Normal human prostate CRL-2221 (PZ—HPV-7) was grown in MEM 10% FBS and normal human breast MCF-10A in MEGM kit.

The subject of the next assay is KM20L2. Kind of assay: NCI sulforhodamine B growth inhibition, colon cancer cells. As to conditions: 48 h. The protocol: as §1
The test system of the next assay is DU-145. In words: NCI sulforhodamine B growth inhibition, prostate cancer cells. To be noted: DU145 prostate, 48 h. On the procedure: as §1
The next assay deals with MCF-7. In words: NCI sulforhodamine B growth inhibition, breast cancer cells. To be noted: MCF-7 breast, 48 h. The protocol: as §1
A further assay has as its system NCI-H460. Kind of assay: NCI sulforhodamine B growth inhibition, lung cancer cells. To be noted: 48 h. The protocol: as §1
Assay [1] relates to mini panel of cancer cell lines. In words: Growth inhibition across the mini panel of cancer cell lines. As to conditions: mini panel of cancer cell lines (Table 1). On the procedure: as §1
The growth inhibition property of the silstatins and some intermediates were evaluated against a mini panel of cancer cell lines (Table 1).

A further assay deals with BXPC-3. Kind of assay: NCI sulforhodamine B growth inhibition, pancreas cancer cells. As to conditions: BXPC3 pancreas, 48 h. On the procedure: as §1

Where only a bound is given, the exact number is not on record here.

Take `CC(C)C[C@H]1OC(=O)[C@H](C(C)C)NC(=O)[C@H](C)OC(=O)[C@@H](C(C)C)NC(=O)[C@@H](CC(C)C)OC(=O)[C@H](C(C)C)NC(=O)[C@H](C)OC(=O)[C@@H](C(C)C)NC(=O)[C@@H](CC(C)C)OC(=O)[C@H](C(C)C)NC(=O)[C@H](C)OC(=O)[C@@H](C(C)C)NC1=O` [Silstatin 1 (7a), Cyclo-[Val-D-Hica-D-Val-Lac]3]: the “Growth inhibition of human cancer cell lines GI50” value in the assay with SF268 came to 0.21 ng/mL; in the assay on KM20L2, 0.16 ng/mL; in the assay on DU-145 it was 0.42 ng/mL; in the assay with MCF-7, 0.11 ng/mL; in the assay with NCI-H460, 0.7 ng/mL; in the assay on BXPC-3, 0.8 ng/mL. Moreover, in assay [1], the “Cancer cell growth inhibition, assessment in words” value (shortened to “Cancer cell growth inhibition”) is given as “did not affect its high potency”.

As to `CC(C)C[C@H]1OC(=O)[C@H](C(C)C)NC(=O)[C@H](C)OC(=O)[C@@H](C(C)C)NC(=O)[C@@H](CC(C)C)OC(=O)[C@H]([C@@H](C)O)NC(=O)[C@H](C)OC(=O)[C@@H](C(C)C)NC(=O)[C@@H](CC(C)C)OC(=O)[C@H](C(C)C)NC(=O)[C@H](C)OC(=O)[C@@H](C(C)C)NC1=O` [Silstatin 2 (8a), Cyclo-{Thr-D-Hica-D-Val-Lac-[Val-D-Hica-D-Val-Lac]2}], the “Growth inhibition of human cancer cell lines GI50” value stood at 3.1 ng/mL in the assay on SF268; 3.3 ng/mL in the assay with KM20L2; 6 ng/mL in the assay with DU-145; 2.2 ng/mL in the assay on MCF-7; 3.2 ng/mL with NCI-H460; 4 ng/mL in the assay with BXPC-3. Further, the “Cancer cell growth inhibition” value in assay [1] is “somewhat decreased activity”.

In the case of `CC(C)C[C@H]1OC(=O)[C@H](Cc2ccc(O)cc2)NC(=O)[C@H](C)OC(=O)[C@@H](C(C)C)NC(=O)[C@@H](CC(C)C)OC(=O)[C@H](C(C)C)NC(=O)[C@H](C)OC(=O)[C@@H](C(C)C)NC(=O)[C@@H](CC(C)C)OC(=O)[C@H](C(C)C)NC(=O)[C@H](C)OC(=O)[C@@H](C(C)C)NC1=O` [Silstatin 3 (8b), Cyclo-{Tyr-D-Hica-D-Val-Lac-[Val-D-Hica-D-Val-Lac]2}], the “Growth inhibition of human cancer cell lines GI50” value amounted to 4 ng/mL in the assay with SF268; 1.1 ng/mL with KM20L2; 5.1 ng/mL in the assay on DU-145; 1.6 ng/mL with MCF-7; 3.7 ng/mL with NCI-H460; 5 ng/mL with BXPC-3. Also, the “Cancer cell growth inhibition” value in assay [1] is on record as “somewhat decreased activity”.

Regarding `CC(C)C[C@H]1OC(=O)[C@H](Cc2ccc(OC(C)(C)C)cc2)NC(=O)[C@H](C)OC(=O)[C@@H](C(C)C)NC(=O)[C@@H](CC(C)C)OC(=O)[C@H](C(C)C)NC(=O)[C@H](C)OC(=O)[C@@H](C(C)C)NC(=O)[C@@H](CC(C)C)OC(=O)[C@H](C(C)C)NC(=O)[C@H](C)OC(=O)[C@@H](C(C)C)NC1=O` [Silstatin 7c, Cyclo-{Tyr(tBu)-D-Hica-D-Val-Lac-[Val-D-Hica-D-Val-Lac]2}], the “Growth inhibition of human cancer cell lines GI50” value amounted to 2.5 ng/mL in the assay on SF268; 4.8 ng/mL in the assay on KM20L2; 11 ng/mL in the assay with DU-145; 4.2 ng/mL with MCF-7; 29 ng/mL with NCI-H460; 30 ng/mL with BXPC-3.

Take `CC(C)[C@@H]1NC(=O)[C@H](C)OC(=O)[C@@H](C(C)C)NC(=O)[C@@H](CC2CCCCC2)OC(=O)[C@H]([C@@H](C)OC(C)(C)C)NC(=O)[C@H](C)OC(=O)[C@@H](C(C)C)NC(=O)[C@@H](CC2CCCCC2)OC(=O)[C@H](C(C)C)NC(=O)[C@H](C)OC(=O)[C@@H](C(C)C)NC(=O)[C@@H](CC2CCCCC2)OC1=O` [Silstatin 14b, Cyclo-{Thr(tBu)-D-Hcha-D-Val-Lac-[Val-D-Hcha-D-Val-Lac]2}]: the “Growth inhibition of human cancer cell lines GI50” value in the assay on SF268 is 75 ng/mL; with KM20L2, 80 ng/mL; in the assay on DU-145 it was 120 ng/mL; in the assay on MCF-7, 75 ng/mL; with NCI-H460, 320 ng/mL; in the assay with BXPC-3, 180 ng/mL.

Consider `CC(C)[C@@H]1NC(=O)[C@H](C)OC(=O)[C@@H](C(C)C)NC(=O)[C@@H](CC2CCCCC2)OC(=O)[C@H](C(C)C)NC(=O)[C@H](C)OC(=O)[C@@H](C(C)C)NC(=O)[C@@H](CC2CCCCC2)OC(=O)[C@H](Cc2ccc(OC(C)(C)C)cc2)NC(=O)[C@H](C)OC(=O)[C@@H](C(C)C)NC(=O)[C@@H](CC2CCCCC2)OC1=O` [Silstatin 14c, Cyclo-{Tyr(tBu)-D-Hcha-D-Val-Lac-[Val-D-Hcha-D-Val-Lac]2}], for which the “Growth inhibition of human cancer cell lines GI50” value with SF268, with KM20L2, in the assay on DU-145, in the assay with MCF-7, with NCI-H460 and in the assay on BXPC-3 was over 1000 ng/mL each time.

With `CC(C)C[C@H]1OC(=O)[C@H](C(C)C)NC(=O)[C@H](C)OC(=O)[C@@H](C(C)C)NC(=O)[C@@H](CC2CCCCC2)OC(=O)[C@H]([C@@H](C)OC(C)(C)C)NC(=O)[C@H](C)OC(=O)[C@@H](C(C)C)NC(=O)[C@@H](CC(C)C)OC(=O)[C@H](C(C)C)NC(=O)[C@H](C)OC(=O)[C@@H](C(C)C)NC1=O` [Silstatin 17a, Cyclo-{Thr(tBu)-D-Hcha-D-Val-Lac-[Val-D-Hica-D-Val-Lac]2}], the “Growth inhibition of human cancer cell lines GI50” value was 4 ng/mL with SF268; 2.4 ng/mL in the assay with KM20L2; 7 ng/mL in the assay on DU-145; 1 ng/mL in the assay with MCF-7; 9 ng/mL in the assay with NCI-H460; 23 ng/mL with BXPC-3.

Consider `CC(C)C[C@H]1OC(=O)[C@H](C(C)C)NC(=O)[C@H](C)OC(=O)[C@@H](C(C)C)NC(=O)[C@@H](CC(C)C)OC(=O)[C@H](C(C)C)NC(=O)[C@H](C)OC(=O)[C@@H](C(C)C)NC(=O)[C@@H](CC2CCCCC2)OC(=O)[C@H](Cc2ccc(OC(C)(C)C)cc2)NC(=O)[C@H](C)OC(=O)[C@@H](C(C)C)NC1=O` [Silstatin 17b, Cyclo-{Tyr(tBu)-D-Hcha-D-Val-Lac-[Val-D-Hica-D-Val-Lac]2}], for which the “Growth inhibition of human cancer cell lines GI50” value with SF268 stood at 60 ng/mL; in the assay on KM20L2, 52 ng/mL; with DU-145, 40 ng/mL; with MCF-7 it was 32 ng/mL; in the assay on NCI-H460, 120 ng/mL; in the assay on BXPC-3, 90 ng/mL.

The record behind these values is patent US11174291B2, “Silstatin compounds” (Arizona Board of Regents on behalf of Arizona State …, priority 2015, dated 2021).
